# Test results reported in ChEMBL document CHEMBL6114972, “Proteolysis targeting chimera of BI-2536 induces potent dual degradation of PLK1 and BET proteins” (Bioorg Med Chem, 2025).
# Activity calls are given as the source filed them. The calls are words filed in the database; no cut-off is given here.
# How the values were obtained:
# K562 = assay: Cytotoxicity against human K562 cells assessed as reduction in cell viability measured after 3 days by CCK-8 assay; format: functional, cell-based; conditions: K562, 72 h
# CWR22R [1] = assay: Effect on P21 mRNA expression in human 22Rv1 cells at 20 to 100 nM measured after 36 hrs by RT-qPCR analysis; format: functional, cell-based; conditions: dose 20-100 nM
# [2] = biological target: T1, Protein cereblon/Bromodomain-containing protein 4 (Homo sapiens, UniProt O60885+Q96SW2); assay: Protac activity at CRBN/BRD4 in human 22Rv1 cells assessed as BRD4 degradation measured after 36 hrs by Western blot analysis relative to control; format: cell-based
# [3] = biological target: T2, Protein cereblon/Bromodomain-containing protein 2 (Homo sapiens, UniProt P25440+Q96SW2); assay: Protac activity at CRBN/BRD2 in human HeLa cells assessed as BRD2 degradation at 3 nM measured after 36 hrs by Western blot analysis; format: cell-based
# Target sequence in this assay (P25440 whole entry, looked up): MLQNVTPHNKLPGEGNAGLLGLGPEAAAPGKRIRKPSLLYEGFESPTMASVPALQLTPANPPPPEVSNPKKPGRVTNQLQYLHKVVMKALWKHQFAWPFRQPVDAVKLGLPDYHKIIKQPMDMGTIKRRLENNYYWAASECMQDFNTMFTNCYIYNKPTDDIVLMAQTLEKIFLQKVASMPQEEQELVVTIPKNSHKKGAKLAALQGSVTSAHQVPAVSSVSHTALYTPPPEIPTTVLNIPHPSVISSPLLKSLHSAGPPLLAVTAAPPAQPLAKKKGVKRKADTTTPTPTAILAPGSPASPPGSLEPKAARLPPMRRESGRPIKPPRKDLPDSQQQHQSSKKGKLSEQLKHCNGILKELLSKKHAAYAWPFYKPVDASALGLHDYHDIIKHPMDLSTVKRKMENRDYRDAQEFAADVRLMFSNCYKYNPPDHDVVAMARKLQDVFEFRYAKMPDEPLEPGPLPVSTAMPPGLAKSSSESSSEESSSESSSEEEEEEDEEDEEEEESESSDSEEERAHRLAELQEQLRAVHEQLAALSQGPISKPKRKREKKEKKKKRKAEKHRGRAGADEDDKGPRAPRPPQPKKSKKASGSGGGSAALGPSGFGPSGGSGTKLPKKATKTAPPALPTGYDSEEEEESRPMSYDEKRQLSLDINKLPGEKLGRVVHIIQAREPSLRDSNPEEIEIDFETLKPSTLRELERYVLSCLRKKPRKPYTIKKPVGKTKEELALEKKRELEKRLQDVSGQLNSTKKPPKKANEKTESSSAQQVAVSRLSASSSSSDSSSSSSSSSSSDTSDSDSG
# Target sequence in this assay (Q96SW2 whole entry, looked up): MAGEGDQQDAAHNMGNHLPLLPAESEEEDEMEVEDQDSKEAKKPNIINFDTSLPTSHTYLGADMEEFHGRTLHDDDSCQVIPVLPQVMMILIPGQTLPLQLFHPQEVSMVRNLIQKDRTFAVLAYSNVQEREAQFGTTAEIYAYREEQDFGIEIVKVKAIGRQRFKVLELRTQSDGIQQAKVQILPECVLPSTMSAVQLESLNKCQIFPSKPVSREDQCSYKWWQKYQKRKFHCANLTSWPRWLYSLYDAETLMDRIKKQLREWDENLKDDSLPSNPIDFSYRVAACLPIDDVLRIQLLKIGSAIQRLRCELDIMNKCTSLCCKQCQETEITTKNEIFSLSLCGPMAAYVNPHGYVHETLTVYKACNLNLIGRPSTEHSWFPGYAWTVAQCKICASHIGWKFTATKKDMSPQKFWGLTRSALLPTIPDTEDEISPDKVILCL
# [4] = biological target: T3, Protein cereblon/Serine/threonine-protein kinase PLK1 (Homo sapiens, UniProt P53350+Q96SW2); assay: Protac activity at CRBN/PLK1 in human HeLa cells assessed as PLK1 degradation measured after 36 hrs by Western blot analysis relative to control; format: cell-based
# Target sequence in this assay (P53350 2-603 limits assumed): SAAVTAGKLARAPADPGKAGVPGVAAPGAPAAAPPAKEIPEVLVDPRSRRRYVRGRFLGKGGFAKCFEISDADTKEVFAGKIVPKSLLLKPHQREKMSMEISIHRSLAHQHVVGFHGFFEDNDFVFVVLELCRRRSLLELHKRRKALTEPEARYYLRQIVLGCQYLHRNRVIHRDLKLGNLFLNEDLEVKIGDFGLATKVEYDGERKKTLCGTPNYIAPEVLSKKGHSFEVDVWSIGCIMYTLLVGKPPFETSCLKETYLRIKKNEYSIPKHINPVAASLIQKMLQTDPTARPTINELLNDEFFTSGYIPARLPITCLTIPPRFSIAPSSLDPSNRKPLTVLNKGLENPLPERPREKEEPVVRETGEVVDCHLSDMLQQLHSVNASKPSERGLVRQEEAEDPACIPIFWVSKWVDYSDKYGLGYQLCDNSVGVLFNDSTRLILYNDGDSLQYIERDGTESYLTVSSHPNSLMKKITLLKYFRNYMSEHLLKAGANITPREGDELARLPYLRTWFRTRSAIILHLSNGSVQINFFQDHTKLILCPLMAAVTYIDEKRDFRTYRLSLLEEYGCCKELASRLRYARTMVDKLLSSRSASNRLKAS
# Target sequence in this assay (Q96SW2 whole entry partner): as the sequence (Q96SW2 whole entry, looked up) above
# CWR22R [5] = assay: Cytotoxicity against human 22Rv1 cells assessed as reduction in cell viability measured after 3 days by CCK-8 assay; format: functional, cell-based; conditions: 22Rv1, 72 h
# [6] = biological target: T3, Protein cereblon/Serine/threonine-protein kinase PLK1; assay: Protac activity at CRBN/PLK1 in human K562 cells assessed as PLK1 degradation at 10 nM measured after 36 hrs by Western blot analysis; format: cell-based
# Target sequence in this assay (P53350 2-603 limits assumed): as the sequence (P53350 2-603 limits assumed) above
# Target sequence in this assay (Q96SW2 whole entry partner): as the sequence (Q96SW2 whole entry, looked up) above
# [7] = biological target: T1, Protein cereblon/Bromodomain-containing protein 4; assay: Protac activity at CRBN/BRD4 in human 22Rv1 cells assessed as BRD4 degradation at 50 nM measured after 4 hrs by Western blot analysis; format: cell-based
# [8] = biological target: T1, Protein cereblon/Bromodomain-containing protein 4; assay: Protac activity at CRBN/BRD4 in human 22Rv1 cells assessed as down regulation of MYC gene expression at 20 to 100 nM measured after 36 hrs by RT-qPCR analysis; format: cell-based; conditions: dose 20-100 nM
# [9] = biological target: T1, Protein cereblon/Bromodomain-containing protein 4; assay: Protac activity at CRBN/BRD4 in human 22Rv1 cells assessed as BRD4 degradation at 50 nM measured after 2 hrs by Western blot analysis; format: cell-based
# [10] = biological target: T4, Protein cereblon/Bromodomain-containing protein 3 (Homo sapiens, UniProt Q15059+Q96SW2); assay: Protac activity at CRBN/BRD3 in human HeLa cells assessed as BRD3 degradation measured after 36 hrs by Western blot analysis relative to control; format: cell-based
# Target sequence in this assay (Q15059 2-726 limits assumed): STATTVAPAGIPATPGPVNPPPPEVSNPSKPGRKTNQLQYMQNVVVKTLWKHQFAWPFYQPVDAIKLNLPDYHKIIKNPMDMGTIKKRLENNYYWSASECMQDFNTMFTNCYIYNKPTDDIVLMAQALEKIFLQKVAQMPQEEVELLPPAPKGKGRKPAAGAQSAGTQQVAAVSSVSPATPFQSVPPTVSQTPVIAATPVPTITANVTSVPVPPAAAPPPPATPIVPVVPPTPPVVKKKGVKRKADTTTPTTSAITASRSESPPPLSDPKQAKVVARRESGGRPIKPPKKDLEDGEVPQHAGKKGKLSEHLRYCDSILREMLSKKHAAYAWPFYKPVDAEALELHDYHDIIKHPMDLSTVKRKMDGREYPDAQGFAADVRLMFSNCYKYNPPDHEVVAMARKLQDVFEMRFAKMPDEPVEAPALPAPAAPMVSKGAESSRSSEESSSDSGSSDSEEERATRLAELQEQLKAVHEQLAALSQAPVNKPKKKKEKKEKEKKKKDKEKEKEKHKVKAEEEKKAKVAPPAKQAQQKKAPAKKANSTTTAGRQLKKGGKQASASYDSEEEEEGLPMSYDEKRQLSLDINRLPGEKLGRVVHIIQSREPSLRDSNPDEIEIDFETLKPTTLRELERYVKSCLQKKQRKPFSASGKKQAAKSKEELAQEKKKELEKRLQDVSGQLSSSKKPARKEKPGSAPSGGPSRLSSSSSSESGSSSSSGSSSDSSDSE
# Target sequence in this assay (Q96SW2 whole entry partner): as the sequence (Q96SW2 whole entry, looked up) above
# MDA-MB-231 = assay: Cytotoxicity against human MDA-MB-231 cells assessed as reduction in cell viability measured after 3 days by CCK-8 assay; format: functional, cell-based; conditions: MDA-MB-231, 72 h
# [11] = biological target: T4, Protein cereblon/Bromodomain-containing protein 3; assay: Protac activity at CRBN/BRD3 in human HeLa cells assessed as BRD3 degradation measured after 36 hrs by Western blot analysis; format: cell-based
# [12] = biological target: T3, Protein cereblon/Serine/threonine-protein kinase PLK1; assay: Protac activity at CRBN/PLK1 in human MDA-MB-231 cells assessed as PLK1 degradation at 10 nM measured after 36 hrs by Western blot analysis; format: cell-based
# Target sequence in this assay (P53350 2-603 limits assumed): as the sequence (P53350 2-603 limits assumed) above
# Target sequence in this assay (Q96SW2 whole entry partner): as the sequence (Q96SW2 whole entry, looked up) above
# HeLa = assay: Cytotoxicity against human HeLa cells assessed as reduction in cell viability measured after 3 days by CCK-8 assay; format: functional, cell-based; conditions: 72 h
# [13] = biological target: T3, Protein cereblon/Serine/threonine-protein kinase PLK1; assay: Protac activity at CRBN/PLK1 in human 22Rv1 cells assessed as PLK1 degradation measured after 36 hrs by Western blot analysis relative to control; format: cell-based
# Target sequence in this assay (P53350 2-603 limits assumed): as the sequence (P53350 2-603 limits assumed) above
# Target sequence in this assay (Q96SW2 whole entry partner): as the sequence (Q96SW2 whole entry, looked up) above
# [14] = biological target: T1, Protein cereblon/Bromodomain-containing protein 4; assay: Protac activity at CRBN/BRD4 in human K562 cells assessed as BRD4 degradation at 10 nM measured after 36 hrs by Western blot analysis; format: cell-based
# CWR22R [15] = assay: Down regulation of PRDM1 mRNA expression in human 22Rv1 cells at 20 to 100 nM measured after 36 hrs by RT-qPCR analysis; format: functional, cell-based; conditions: dose 20-100 nM
# CWR22R [16] = assay: Down regulation of XIAP mRNA expression in human 22Rv1 cells at 20 to 100 nM measured after 36 hrs by RT-qPCR analysis; format: functional, cell-based; conditions: dose 20-100 nM
# [17] = biological target: T3, Protein cereblon/Serine/threonine-protein kinase PLK1; assay: Protac activity at CRBN/PLK1 in human 22Rv1 cells assessed as PLK1 degradation at 50 nM measured after 24 hrs by Western blot analysis; format: cell-based
# Target sequence in this assay (P53350 2-603 limits assumed): as the sequence (P53350 2-603 limits assumed) above
# Target sequence in this assay (Q96SW2 whole entry partner): as the sequence (Q96SW2 whole entry, looked up) above
# [18] = biological target: T3, Protein cereblon/Serine/threonine-protein kinase PLK1; assay: Protac activity at CRBN/PLK1 in human 22Rv1 cells assessed as PLK1 degradation at 2 uM measured after 12 to 24 hrs by Western blot analysis; format: cell-based; conditions: time 12-24 hrs
# Target sequence in this assay (P53350 2-603 limits assumed): as the sequence (P53350 2-603 limits assumed) above
# Target sequence in this assay (Q96SW2 whole entry partner): as the sequence (Q96SW2 whole entry, looked up) above
# [19] = biological target: T3, Protein cereblon/Serine/threonine-protein kinase PLK1; assay: Protac activity at CRBN/PLK1 in human HeLa cells assessed as PLK1 degradation at 10 nM measured after 36 hrs by Western blot analysis; format: cell-based
# [20] = biological target: T4, Protein cereblon/Bromodomain-containing protein 3; assay: Protac activity at CRBN/BRD3 in human 22Rv1 cells assessed as BRD3 degradation measured after 36 hrs by Western blot analysis relative to control; format: cell-based
# Target sequence in this assay (Q15059 2-726 limits assumed): as the sequence (Q15059 2-726 limits assumed) above
# Target sequence in this assay (Q96SW2 whole entry partner): as the sequence (Q96SW2 whole entry, looked up) above
# [21] = biological target: T2, Protein cereblon/Bromodomain-containing protein 2; assay: Protac activity at CRBN/BRD2 in human 22Rv1 cells assessed as BRD2 degradation measured after 36 hrs by Western blot analysis; format: cell-based
# [22] = biological target: T4, Protein cereblon/Bromodomain-containing protein 3; assay: Protac activity at CRBN/BRD3 in human HeLa cells assessed as BRD3 degradation at 3 nM measured after 36 hrs by Western blot analysis; format: cell-based
# Target sequence in this assay (Q15059 2-726 limits assumed): as the sequence (Q15059 2-726 limits assumed) above
# Target sequence in this assay (Q96SW2 whole entry partner): as the sequence (Q96SW2 whole entry, looked up) above
# [23] = biological target: T1, Protein cereblon/Bromodomain-containing protein 4; assay: Protac activity at CRBN/BRD4 in human HeLa cells assessed as BRD4 degradation at 10 nM measured after 36 hrs by Western blot analysis; format: cell-based
# CWR22R [24] = assay: Down regulation of Bcl-2 mRNA expression in human 22Rv1 cells at 20 to 100 nM measured after 36 hrs by RT-qPCR analysis; format: functional, cell-based; conditions: dose 20-100 nM
# [25] = biological target: T1, Protein cereblon/Bromodomain-containing protein 4; assay: Protac activity at CRBN/BRD4 in human HeLa cells assessed as BRD4 degradation measured after 36 hrs by Western blot analysis relative to control; format: cell-based
# [26] = biological target: T1, Protein cereblon/Bromodomain-containing protein 4; assay: Protac activity at CRBN/BRD4 in human MDA-MB-231 cells assessed as BRD4 degradation at 10 nM measured after 36 hrs by Western blot analysis; format: cell-based
# [27] = biological target: T1, Protein cereblon/Bromodomain-containing protein 4; assay: Protac activity at CRBN/BRD4 in human HeLa cells assessed as BRD4 degradation at 500 nM measured after 12 hrs by Western blot analysis; format: cell-based
# [28] = biological target: T1, Protein cereblon/Bromodomain-containing protein 4; assay: Protac activity at CRBN/BRD4 in human HeLa cells assessed as BRD4 degradation at 3 nM measured after 36 hrs by Western blot analysis; format: cell-based
# [29] = biological target: T3, Protein cereblon/Serine/threonine-protein kinase PLK1; assay: Protac activity at CRBN/PLK1 in human HeLa cells assessed as PLK1 degradation at 500 nM measured after 12 hrs by Western blot analysis; format: cell-based
# [30] = biological target: T3, Protein cereblon/Serine/threonine-protein kinase PLK1; assay: Protac activity at CRBN/PLK1 in human HeLa cells assessed as PLK1 degradation at 200 nM measured after 24 hrs by Western blot analysis; format: cell-based
# [31] = biological target: T3, Protein cereblon/Serine/threonine-protein kinase PLK1; assay: Protac activity at CRBN/PLK1 in human 22Rv1 cells assessed as PLK1 degradation at 10 to 500 nM measured after 36 hrs by Western blot analysis; format: cell-based; conditions: dose 10-500 nM
# [32] = biological target: T3, Protein cereblon/Serine/threonine-protein kinase PLK1; assay: Protac activity at CRBN/PLK1 in human 22Rv1 cells assessed as PLK1 degradation measured after 36 hrs by Western blot analysis; format: cell-based
# CWR22R [33] = assay: Antiproliferative activity against human 22Rv1 cells assessed as reduction in cell viability up to 100000 nM incubated for 24 hrs prior to compound washout measured after 1 week by crystal violet staining based assay; format: functional
# [34] = biological target: T1, Protein cereblon/Bromodomain-containing protein 4; assay: Protac activity at CRBN/BRD4 in human 22Rv1 cells assessed as BRD4 degradation measured after 36 hrs by Western blot analysis; format: cell-based
# [35] = biological target: T2, Protein cereblon/Bromodomain-containing protein 2; assay: Protac activity at CRBN/BRD2 in human HeLa cells assessed as BRD2 degradation measured after 36 hrs by Western blot analysis; format: cell-based
# [36] = biological target: T2, Protein cereblon/Bromodomain-containing protein 2; assay: Protac activity at CRBN/BRD2 in human HeLa cells assessed as BRD2 degradation measured after 36 hrs by Western blot analysis relative to control; format: cell-based
# Target sequence in this assay (P25440 whole entry, looked up): as the sequence (P25440 whole entry, looked up) above
# Target sequence in this assay (Q96SW2 whole entry, looked up): as the sequence (Q96SW2 whole entry, looked up) above
# [37] = biological target: T4, Protein cereblon/Bromodomain-containing protein 3; assay: Protac activity at CRBN/BRD3 in human 22Rv1 cells assessed as BRD3 degradation measured after 36 hrs by Western blot analysis; format: cell-based
# [38] = biological target: T3, Protein cereblon/Serine/threonine-protein kinase PLK1; assay: Protac activity at CRBN/PLK1 in human HeLa cells assessed as PLK1 degradation at 500 nM measured after 36 hrs by Western blot analysis; format: cell-based
# [39] = biological target: T2, Protein cereblon/Bromodomain-containing protein 2; assay: Protac activity at CRBN/BRD2 in human 22Rv1 cells assessed as BRD2 degradation measured after 36 hrs by Western blot analysis relative to control; format: cell-based
# Target sequence in this assay (P25440 whole entry, looked up): as the sequence (P25440 whole entry, looked up) above
# Target sequence in this assay (Q96SW2 whole entry, looked up): as the sequence (Q96SW2 whole entry, looked up) above
# [40] = biological target: T1, Protein cereblon/Bromodomain-containing protein 4; assay: Protac activity at CRBN/BRD4 in human HeLa cells assessed as BRD4 degradation at 20 nM measured after 24 hrs by Western blot analysis; format: cell-based
# [41] = biological target: T3, Protein cereblon/Serine/threonine-protein kinase PLK1; assay: Protac activity at CRBN/PLK1 in human HeLa cells assessed as PLK1 degradation at 10 to 500 nM measured after 36 hrs by Western blot analysis; format: cell-based; conditions: dose 10-500 nM
# [42] = biological target: T3, Protein cereblon/Serine/threonine-protein kinase PLK1; assay: Protac activity at CRBN/PLK1 in human 22Rv1 cells assessed as PLK1 degradation at 50 nM measured after 36 hrs by Western blot analysis; format: cell-based
# [43] = biological target: T3, Protein cereblon/Serine/threonine-protein kinase PLK1; assay: Protac activity at CRBN/PLK1 in human HeLa cells assessed as PLK1 degradation measured after 36 hrs by Western blot analysis; format: cell-based
# [44] = biological target: T1, Protein cereblon/Bromodomain-containing protein 4; assay: Protac activity at CRBN/BRD4 in human HeLa cells assessed as BRD4 degradation measured after 36 hrs by Western blot analysis; format: cell-based
# T1 sequence (Q96SW2 whole entry, looked up, other chains not shown): as the sequence (Q96SW2 whole entry, looked up) above
structure (smiles),measurement,setting,value
CC[C@@H]1C(=O)N(C)c2cnc(Nc3ccc(C(=O)NC4CCN(CCCCCCCC(=O)Nc5cccc6c5C(=O)N(C5CCC(=O)NC5=O)C6=O)CC4)cc3OC)nc2N1C1CCCC1 (some centres not stated),IC50,K562,52 nM
same,Activity,CWR22R [1],inactive
same,Activity,[2],96.5%
same,Activity,[3],Active
same,Activity,[4],78.6%
same,IC50,CWR22R [5],45 nM
same,Activity,[6],Active
same,Activity,[7],Active; Near-Complete Depletion Of Brd4 Observed
same,Activity,[8],Active; Nearly Complete Down Regulation Observed At 20 Nm
same,Activity,[9],Active; Effectively Reduced The Protein Level
same,Activity,[10],93.3%
same,IC50,MDA-MB-231,274 nM
same,DC50,[11],1.74 nM
same,Activity,[12],Active
same,IC50,HeLa,44 nM
same,Activity,[13],78%
same,Activity,[14],Active
same,Activity,CWR22R [15],Active
same,Activity,CWR22R [16],Active
same,Activity,[17],Not active; No Significant Effect Observed
same,Activity,[18],Active
same,Activity,[19],Active
same,Activity,[20],89.9%
same,DC50,[21],1.63 nM
same,Activity,[22],Active
same,Activity,[23],Active
same,Activity,CWR22R [24],Active
same,Activity,[25],93.4%
same,Activity,[26],Active
same,Activity,[27],95%
same,Activity,[28],Active
same,Activity,[29],28%
same,Activity,[30],Active; Moderate Effect Observed
same,Activity,[31],Active; Higher Degradation Observed At 36 Hrs
same,DC50,[32],4.68 nM
same,Activity,CWR22R [33],Active; Antiproliferative Effect Was Enhanced Even After 1 Week
same,DC50,[34],1.56 nM
same,DC50,[35],6.45 nM
same,Activity,[36],82.8%
same,DC50,[37],9.45 nM
same,Activity,[38],92%
same,Activity,[39],91.5%
same,Activity,[40],Active; Demonstrated Most Potent Efficacy
same,Activity,[41],Active; Higher Degradation Observed At 36 Hrs
same,Activity,[42],Active; Profound Degradation Observed
same,DC50,[43],1.64 nM
same,DC50,[44],1.03 nM
